Data set [1] in a line: Compatibility tests of components, 1 month. The class given is physicochemical. The note with it: for degradation of letrozole caused by PTSA: 1 months. The procedure:
The compatibility test was performed at room temperature (25° C.), 40° C. under 75% RH and 50° C., for 1 months with the various components tested in proportion to the intended composition.

The conditions of data set [2]: pH dependence; cited from earlier work.

The values below come from patent US11672804B1, “Pharmaceutical composition containing palbociclib and letrozole” (EGIS Gyógyszergyár Zrt., priority 2022, dated 2023).

As to `N#Cc1ccc(C(c2ccc(C#N)cc2)n2cncn2)cc1` [letrozole, Letrozole], the results for the “degradation of letrozole caused by PTSA” value in data set [1] (25° C.), in data set [1] (40° C.) and in data set [1] (50° C.) were 5%, 12% and 15%, respectively.
As for `CC(=O)c1c(C)c2cnc(Nc3ccc(N4CCNCC4)cn3)nc2n(C2CCCC2)c1=O` [palbociclib base, Palbociclib], the “degradation of palbociclib base by PTSA” value in data set [1] (25° C., 40° C. and 50° C., one month) was “did not induce degradation”. Moreover, the solubility entry in data set [2] is recorded as “soluble only in a strongly acidic medium”.
